# System: HeLa
# Assay: Cytotoxicity against human HeLa cells after 48 hrs by MTT assay
# Assay type: functional, cell-based
compound,measurement,value
C[C@H](O)[C@H]1OC(=O)C[C@H]1O[C@H]1C=CC(=O)O[C@H]1C [ANGIOPTERLACTONE A],IC50,68.8 µM

# Source: ChEMBL document CHEMBL1151948, “Lactones from Angiopteris caudatiformis” (J Nat Prod, 2009)
